Consider 5 compounds from patent US20170233345A1, “SUBSTITUTED QUINOLINE-4-CARBOXAMIDES AND USE THEREOF” (BAYER PHARMA AKTIENGESELLSCHAFT, priority 2014, published 2017).

The subject of the assay is recombinant guanylate cyclase reporter cell line. Briefly: Effect on a recombinant guanylate cyclase reporter cell line. It counts as cell-based. The settings on record: in some cases mean values from individual determinations, read-out: MEC (minimum effective concentration). Here is the method: B-2. Effect on a Recombinant Guanylate Cyclase Reporter Cell Line
The cellular activity of the compounds according to the invention is determined using a recombinant guanylate cyclase reporter cell line, as described in F. Wunder et al., Anal. Biochem. 339, 104-112 (2005).
Representative MEC values (MEC=minimum effective concentration) for the compounds of the invention are shown in the table below (in some cases as mean values from individual determinations): […]
Regarding `O=C(NC1(c2ccc(F)cc2)CC1)c1cnc2c(OCc3c(F)cccc3F)cccc2c1` [Example 39, 8-[(2,6-Difluorobenzyl)oxy]-N-[1-(4-fluorophenyl)cyclopropyl]quinoline-3-carboxamide], the minimal effective concentration was 1 µM.

Turning to `CC[C@](C)(N)CNC(=O)c1cnc2c(OCc3c(F)cccc3F)cccc2c1` [Example 41, N-[(2S)-2-Amino-2-methylbutyl]-8-[(2,6-difluorobenzyl)oxy]quinoline-3-carboxamide], the minimal effective concentration stood at 10 µM.

As to `N#C[C@H]1CC[C@H](CNC(=O)c2ccnc3c(OCc4c(F)cccc4F)cccc23)CC1` [Example 44], the minimal effective concentration worked out at 10 µM.

Take `CCCC[C@H](CO)NC(=O)c1cc(C)nc2c(OCc3c(F)cccc3F)cccc12` [Example 46, ent-8-[(2,6-Difluorobenzyl)oxy]-N-[(2R)-1-hydroxyhexan-2-yl]-2-methylquinoline-4-carboxamide (Enantiomer)]: the minimal effective concentration is 2 µM.

Turning to `Cc1cc(OCc2c(F)cccc2F)c2nccc(C(=O)N[C@@](C)(CO)c3nnc(C)s3)c2c1` [Example 48, ent-8-[(2,6-Difluorobenzyl)oxy]-N-[(2S)-1-hydroxy-2-(5-methyl-1,3,4-thiadiazol-2-yl)propan-2-yl]-6-methylquinoline-4-carboxamide], the minimal effective concentration stood at 3 µM.
